Our source for the Ki values is ChEMBL document CHEMBL1130712, “Phenylpiperazine derivatives with strong affinity for 5HT1A, D2A and D3 receptors” (Bioorg Med Chem Lett, 1998).

Assay [1] addresses D(3) dopamine receptor (Homo sapiens, UniProt P35462). Description: Compound was measured for the binding affinity in chinese hamster ovary (CHO) cells transfected with human Dopamine receptor D3 using [3H]raclopride as radioligand. In kind it is cell-based.
The target in assay [2] is D(2) dopamine receptor (Homo sapiens, UniProt P14416). Description: Compound was measured for the binding affinity in homogenated mouse fibroblast (LTK) cells transfected with human Dopamine receptor D2A using [3H]raclopride as radioligand.
Chain of D(2) dopamine receptor (P14416 whole entry): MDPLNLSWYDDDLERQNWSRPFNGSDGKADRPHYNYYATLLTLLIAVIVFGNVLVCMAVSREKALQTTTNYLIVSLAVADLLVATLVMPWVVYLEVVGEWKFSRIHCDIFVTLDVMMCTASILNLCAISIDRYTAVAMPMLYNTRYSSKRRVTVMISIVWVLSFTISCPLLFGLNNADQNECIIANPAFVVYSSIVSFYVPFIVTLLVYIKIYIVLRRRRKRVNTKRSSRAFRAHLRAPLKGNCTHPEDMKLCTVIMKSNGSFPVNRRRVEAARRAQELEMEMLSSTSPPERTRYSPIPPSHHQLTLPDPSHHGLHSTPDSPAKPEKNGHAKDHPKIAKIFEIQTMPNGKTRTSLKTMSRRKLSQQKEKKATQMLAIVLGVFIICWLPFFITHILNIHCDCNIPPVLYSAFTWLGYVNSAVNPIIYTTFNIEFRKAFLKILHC
Assay [3] deals with T1, 5-hydroxytryptamine receptor 1A (Rattus norvegicus, UniProt P19327).
T1 sequence (P19327 whole entry): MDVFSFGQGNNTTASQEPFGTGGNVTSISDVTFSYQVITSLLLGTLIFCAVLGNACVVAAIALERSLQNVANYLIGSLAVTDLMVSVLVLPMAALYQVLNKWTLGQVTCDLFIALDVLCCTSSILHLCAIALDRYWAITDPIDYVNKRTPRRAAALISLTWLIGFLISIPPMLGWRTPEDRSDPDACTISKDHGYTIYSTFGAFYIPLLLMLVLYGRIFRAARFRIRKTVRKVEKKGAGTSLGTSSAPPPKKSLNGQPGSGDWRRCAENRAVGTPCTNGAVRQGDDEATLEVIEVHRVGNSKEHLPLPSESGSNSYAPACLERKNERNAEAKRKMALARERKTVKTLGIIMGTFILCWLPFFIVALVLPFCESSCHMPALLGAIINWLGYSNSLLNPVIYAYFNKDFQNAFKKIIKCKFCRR
Description: Compound was measured for the inhibition of [3H]8-OH-DPAT binding to rat hippocampus membrane (5-HT1A receptor). In kind it is tissue-based.

Structures are written as SMILES.

The Ki is a measure of affinity in units of concentration, obtained from inhibition or displacement.

Chain of D(3) dopamine receptor (P35462 whole entry): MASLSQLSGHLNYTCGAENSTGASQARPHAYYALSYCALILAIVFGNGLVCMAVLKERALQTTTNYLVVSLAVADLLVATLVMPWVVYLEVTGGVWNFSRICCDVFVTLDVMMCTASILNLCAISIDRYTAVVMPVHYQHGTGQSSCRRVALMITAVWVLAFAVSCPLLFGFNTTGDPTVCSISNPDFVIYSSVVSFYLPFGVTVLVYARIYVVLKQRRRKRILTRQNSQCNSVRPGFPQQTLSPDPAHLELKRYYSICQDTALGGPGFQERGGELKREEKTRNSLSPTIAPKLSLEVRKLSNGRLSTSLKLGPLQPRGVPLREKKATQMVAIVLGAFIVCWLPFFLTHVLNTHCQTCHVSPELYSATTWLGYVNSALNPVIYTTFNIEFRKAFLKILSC

On to `O=c1ccc2ccc(OCCCN3CCN(c4ccccc4)CC3)cc2o1`, for which the figures for the Ki in assay [1], in assay [2] and in assay [3] were 49.7 nM, 16 nM and 5.61 nM, respectively.
`Cc1c(C)c2ccc(OCCCN3CCN(c4ccccc4)CC3)cc2oc1=O`: the Ki in assay [1] turned out to be 44.7 nM; in assay [2], 5.92 nM; in assay [3], 5.31 nM.
`Cc1cc2ccc(OCCCN3CCN(c4ccccc4)CC3)cc2oc1=O`: the results for the Ki in assay [1] and in assay [2] were 18.9 nM and 10.8 nM, respectively.
`Cc1cc(=O)oc2cc(OCCCN3CCN(c4ccccc4)CC3)ccc12`: the Ki in assay [1] worked out at 73.8 nM; in assay [2], 13.7 nM; in assay [3] it was 5.54 nM.
